Earlier results as cited in patent publication US20260048046A1, “METHOD FOR IMPROVING GROWTH PERFORMANCE IN FEEDLOT CATTLE” (Elanco US Inc., priority 2022, published 2026).
Read-outs that look alike come from different tables or passages of the source.

Test system: cattle
Details: zilpaterol 8.3 mg/kg diet DM, Holland et al. (2010), cited from earlier work

CC(C)NC1CCn2c(=O)[nH]c3cccc(c32)C1O (centres unmarked) [zilpaterol]
Difference in HCW between zilpaterol fed and non-treated cattle (3 d removal prior to harvest): 14 kg
Difference in HCW between zilpaterol fed and non-treated cattle (10 d removal prior to harvest): 17 kg
Difference in HCW between zilpaterol fed and non-treated cattle (17 d removal prior to harvest): 5 kg
Difference in HCW between zilpaterol fed and non-treated cattle (24 d removal prior to harvest): 6 kg
Final and carcass-adjusted final BW, effect of feeding zilpaterol (P≥0.14): not affected
